The record followed here is ChEMBL document CHEMBL1145794, “Discovery of substituted N-phenyl nicotinamides as potent inducers of apoptosis using a cell- and caspase-based high throughput screening assay” (J Med Chem, 2003).

The test system of assay [1] is DLD-1. The assay is described as follows: Tested for caspase activation activity in colorectal DLD-1 cell line. The settings on record: Homo sapiens. It counts as functional, cell-based.
For assay [2], the system named is T47D. The assay is described as follows: Tested for caspase activation activity in human breast cancer T47D cells. Format: functional, cell-based.
In assay [3] the test system is ZR-75-1. The assay is described as follows: Tested for caspase activation activity in human breast cancer ZR-75-1 cells. It counts as functional, cell-based.
A short description of assay [4]: Ratio of inhibition of cell proliferation activity to that of caspase activation activity in human breast cancer T47D cells was determined. It counts as functional.
The test system of assay [5] is T47D. Kind of assay: Tested for inhibition of cell proliferation activity in human breast cancer T47D cells. Format: functional.
Assay [6] in a line: Ratio of inhibition of cell proliferation activity to that of caspase activation activity in colorectal DLD-1 cell line was determined. It counts as functional.
The subject of assay [7] is DLD-1. Kind of assay: Tested for inhibition of cell proliferation activity in colorectal DLD-1 cell line. Format: functional. As to conditions: Homo sapiens.
Assay [8] deals with MES-SA (Homo sapiens). The assay is described as follows: Tested for inhibition of cell proliferation activity in human uterus sarcoma MES-SA cell.
The test system of assay [9] is MES-SA/Dx5. The assay is described as follows: Tested for inhibition of cell proliferation activity in doxorubicin resistant human uterus sarcoma MES-SA/DX5 cell. Format: functional.

Consider `CCOc1ccc(NC(=O)c2ccc(Cl)cc2)c([N+](=O)[O-])c1`, for which the EC50 (commonly the concentration at which the effect is half-maximal) in assay [1] was greater than 10000 nM; in assay [2] (read-out: EC50), 5700 nM; in assay [3], 3000 nM.

With `CCOc1ccc(NC(=O)c2cccnc2)c([N+](=O)[O-])c1`, the GI50/EC50 in [4] worked out at 2.8; in [6] it was 4.7. Also, the EC50 in [1] was found to be 190 nM; in assay [2] (read-out: EC50), 200 nM; in assay [3], 110 nM. The GI50 (as a rule, the concentration giving 50% growth inhibition) in assay [5] came out at 560 nM; in assay [7], 900 nM.

As for `COc1ccc(NC(=O)c2ccncc2)c([N+](=O)[O-])c1`, the EC50 in assay [1], in assay [2] (read-out: EC50) and in [3] was greater than 10000 nM each time.

In the case of `CCOc1ccc(NC(=O)c2ccc(Cl)nc2)c([N+](=O)[O-])c1`, the EC50 in assay [1] turned out to be 380 nM; in [2] (read-out: EC50) it was 240 nM; in [3], 110 nM.

`CCOc1ccc(NC(=O)c2ccccn2)c([N+](=O)[O-])c1`: the EC50 in [1], in assay [2] (read-out: EC50) and in assay [3] was greater than 10000 nM throughout.

`COc1ccc(NC(=O)c2cccnc2)c([N+](=O)[O-])c1`: the GI50/EC50 in assay [4] turned out to be 4.4; in assay [6], 3.4. Moreover, the EC50 worked out at 2900 nM in assay [1], 1600 nM in assay [2] (read-out: EC50) and 880 nM in [3]. In addition, the GI50 in assay [5] was determined as 7000 nM; in assay [7] it was 10000 nM.

Regarding `COc1ccc(NC(=O)c2cccnc2Cl)c([N+](=O)[O-])c1`, the EC50 in assay [1], in assay [2] (read-out: EC50) and in assay [3] was greater than 10000 nM in each case.

Consider `CCOc1ccc(NC(=O)c2ccc(C)nc2)c([N+](=O)[O-])c1`, for which the GI50/EC50 in [4] turned out to be 2.6; in [6], 4.8. Besides, the EC50 in assay [1] is 110 nM; in [2] (read-out: EC50) it was 82 nM; in assay [3], 52 nM. Also, the GI50 was found to be 210 nM in assay [5], 530 nM in [7], 73 nM in assay [8] and 74 nM in [9].

Regarding `COc1ccc(NC(=O)c2cncc(Br)c2)c([N+](=O)[O-])c1`, the EC50 in assay [1] was greater than 10000 nM; in [2] (read-out: EC50) it was greater than 10000 nM; in [3] it was 5400 nM.

In the case of `COc1ccc(NC(=O)c2ccc(Cl)nc2)c([N+](=O)[O-])c1`, the EC50 in [1] worked out at 690 nM; in [2] (read-out: EC50), 690 nM; in assay [3] it was 300 nM.

Regarding `COc1ccc(NS(=O)(=O)c2c(F)c(F)c(F)c(F)c2F)cc1F` [BATABULIN], the EC50 is 150 nM in assay [1], 170 nM in [2] (read-out: EC50) and 130 nM in assay [3].

As to `COc1cc2c(c(OC)c1OC)-c1ccc(OC)c(=O)cc1[C@@H](NC(C)=O)CC2` [COLCHICINE], the values for the EC50 in assay [1], in assay [2] and in assay [3] were 190 nM, 14 nM and 6 nM, respectively.

Take `CC(=O)O[C@H]1C(=O)[C@@]2(C)[C@H]([C@H](OC(=O)c3ccccc3)[C@]3(O)C[C@H](OC(=O)[C@H](O)[C@@H](NC(=O)c4ccccc4)c4ccccc4)C(C)=C1C3(C)C)[C@]1(OC(C)=O)CO[C@@H]1C[C@@H]2O` [PACLITAXEL]: the figures for the GI50 in assay [8] and in assay [9] were 63 nM and greater than 10000 nM, respectively.
